Reference: patent publication US20050176740A1, “Cancer treatment method comprising administering an erb-family inhibitor and a raf and/or ras inhibitor” (priority 2002, published 2005)

Columns and labels:
Type in all cases: cell-based, human
[1] = test system: pTyr in Ha-(Val12)-ras transfected HB4a cells; experiment: Western blot of tyrosine phosphorylation (pTyr) after GW2016 treatment, FIG. 2; details: 1 μM or 5 μM GW2016/72 hours
Method: (§1) The HB4a cell line was derived from human mammary luminal tissue. HB4a-erbB2 and HB4a-ras cell lines were generated by overexpression of erbB2 and mutant Ha-(Val-12)-ras in HB4a cell line. The S1 cell line was established by sub-cloning ErbB-2 transfected HB4a (see Harris R A, Eichholtz T J, Hiles J D, Page M J and O'Hare M J. (1999). Int J. Cancer. 80, 477, 484.)
(§2) HB4a cells grew in RPMI 1640 supplemented with L-glutamine, 10% FBS (Hyclone), 10 ug/ml hydrocortisone, and 5 ug/ml insulin. S1 and ras transfected cells were cultured in RPMI 1640 supplemented with L-glutamine, 10% FBS and 50 μg/ml hygromycin. Cell cultures were maintained in a humidified atmosphere of 5% CO2 at 37° C.
(§3) (a) The dual EGFR/erbB-2 inhibitor N-{3-Chloro-4-[(3-fluorobenzyl)oxy]phenyl}-6-[5-({[2-(methanesulphonyl)ethyl]amino}methyl)-2-furyl]-4-quinazolinamine and the cRaf-1 inhbitor of 3-(3,5-Dibromo-4-hydroxy-benzylidene)-5-iodo-1,3-dihydro-indol-2-one were dissolved in 100% DMSO to form solutions of 1, 5, 10, and 20 μM concentrations and tested on cells in growth medium for 3 continuous days. […]
(§4) Whole cell extracts were prepared by scraping cells off petri dishes, washing the cell pellet twice in PBS, and then resuspending the pellet in two-packed-cell volumes of RIPA buffer (150 mM NaCl, 50 mM Tris-HCl, pH 7.5, 0.25% deoxycholate, 1% NP-40, 5 mM sodium orthovanadate, 2 mM sodium fluoride and a protease inhibitor cocktail). Protein concentrations were determined using a modification of the Bradford method (Bio-Rad Laboratory). Steady state levels of total erbB-2, EGFR, Ras, Erk1/2, pErk1/2 and pTyr protein were assessed by Western blot which was carried out as follows: equal amounts of proteins was resolved by 7.5% SDS polyacrylamide gel electrophoresis under reducing conditions. […] Efficiency and equal loading of proteins was evaluated by Ponceau S staining. […]
(§5) HB4a cells growing in RPMI 1640 supplemented with L-glutamine, 10% FBS (Hyclone), 10 ug/ml hydrocortisone, and 5 μg/ml insulin. […] Protein concentrations were determined using a modification of the Bradford method (Bio-Rad Laboratory).

[2] = test system: pTyr in erbB-2 transfected HB4a cells; experiment: as above; details: 1 μM or 5 μM GW2016/72 hours
Method: as §1, §2, §3, §4, §5

[3] = test system: pTyr in parental HB4a cells; experiment: as above; details: 1 μM or 5 μM GW2016/72 hours
Method: as §1, §2, §3, §4, §5

[4] = test system: pErk1/Erk2 in Ha-(Val12)-ras transfected HB4a cells; experiment: Western blot of MAPK activation (pErk1/Erk2) after GW2016 treatment, FIG. 3; details: Ha-(Val 12)-ras transfected HB4a cells; 1 μM or 5 μM GW2016/72 hours
Method: as §1, §2, §3, §4, §5

[5] = test system: pErk1/Erk2 in erbB-2 transfected HB4a cells; experiment: as above; details: 1 μM or 5 μM GW2016/72 hours
Method: as §1, §2, §3, §4, §5

[6] = test system: pErk1/Erk2 in parental HB4a cells; experiment: as above; details: 1 μM or 5 μM GW2016/72 hours
Method: as §1, §2, §3, §4, §5

CS(=O)(=O)CCNCc1ccc(-c2ccc3ncnc(Nc4ccc(OCc5cccc(F)c5)c(Cl)c4)c3c2)o1 [GW2016, N-{3-Chloro-4-[(3-fluorobenzyl)oxy]phenyl}-6-[5-({[2-(methanesulphonyl)ethyl]amino}methyl)-2-furyl]-4-quinazolinamine]
effect on phosphorylation on tyrosine residues (pTyr), Western blot [1]: no effect | tyrosine phosphorylation (pTyr), Western blot [2]: reduction in tyrosine phosphorylation | tyrosine phosphorylation (pTyr), Western blot [3]: reduction in tyrosine phosphorylation | phosphorylation of Erk1/Erk2, Western blot [4]: no effect | pErk1/Erk2, Western blot [5]: decrease in pErk1/Erk2 | Erk1/Erk2 phosphorylation, Western blot [6]: reduction in Erk1/Erk2 phosphorylation
